Experimental findings from patent US20230348394A1, “COMPOSITIONS AND METHODS FOR TREATING MUSCULAR DYSTROPHIES” (The Regents of the University of California, priority 2020, published 2023) are described below.

For assay [1], the system named is membrane-associated utrophin. Nature of the assay: Cell surface protein biotinylation and utrophin immunoblot, mdx myotubes. Format: cell-based, murine. As to conditions: 5 μM, 48 hours. As for the experimental part: (§1) Myotubes treated for 48 hrs were lysed using RIPA buffer (Thermo Fisher Scientific) containing Halt Protease Inhibitor Cocktail (Thermo Fisher Scientific). Cell lysates in RIPA buffer were rocked for 1 hr at 4° C. and centrifuged at 1,000 RPM for 30 mins at 4° C. The supernatant was collected, quantified for protein concentration using the DC protein assay (Bio-Rad), and normalized to 2 mg/ml in water and Laemmli sample buffer with a final concentration of 10% glycerol (Sigma-Aldrich), 5% beta-mercaptoethanol (Sigma-Aldrich), 3% sodium dodecyl sulfate (Sigma-Aldrich), and 0.05% bromophenol blue (Sigma-Aldrich). For SDS-PAGE, samples were heated to 95° C. for 2 mins before loading 40 μg onto 4-12% tris-glycine or bis-tris polyacrylamide gels (Novex), electrophoresed for 2 hrs at 100 volts at RT, and transferred to a nitrocellulose membrane for 2 hrs at 100 volts at 4° C. Ponceau S staining was performed to visualize protein loading and verify protein transfer. […] Autoradiography films were developed using a SRX-101A tabletop processor (Konica Minolta), scanned to a digital file, and analyzed by densitometry of bands using ImageJ version 1.51 s. […]

In a further assay the test system is SSPN protein. Nature of the assay: Sarcospan immunoblot of H2K mdx myotubes. As to conditions: 2.5 to 10 μM, 48 hours. Type of assay: cell-based, murine. The method, then: as §1, with “(Sigma-Aldrich).” for “(Sigma-Aldrich). For SDS-PAGE, samples were heated to 95° C. for 2 mins before loading 40 μg onto 4-12% tris-glycine or bis-tris polyacrylamide gels (Novex), electrophoresed for 2 hrs at 100 volts at RT, and transferred to a nitrocellulose membrane for 2 hrs at 100 volts at 4° C. Ponceau S staining was performed to visualize protein loading and verify protein transfer.”
After excluding compounds that were unstable in solution or that produced highly variable results, nine compounds remained. […] To determine if the increase in SSPN mRNA was also evident at the protein level, we treated mdx myotubes with 2.5 to 10 μM of OT-9, PC1-36, and PC1-42 and analyzed total protein lysates by immunoblotting with SSPN antibodies.

As to `CCN(CC)c1ccc2cc(C(=O)Nc3ccc(C(=O)N4CCCCCC4)cc3)c(=O)oc2c1` [OT-9], the “increase in membrane-associated utrophin protein” value in assay [1] was 1.6 fold. The “increase of SSPN protein levels” value in the assay on SSPN protein was 1.5 fold.
